Columns and labels:
rice flat sedge = assay: Test Example 3: herbicidal effect by foliage application, Wagner pot (Table 18, symbol E); format: in vivo, rice flat sedge (Cyperus iria); conditions: 320 g/ha
Outline: (§1)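 Plants were sown in alluvial soil held under 0.1–0.5 cm standing water and grown 14 days in a greenhouse at 25–30 °C. An emulsifiable formulation, water-diluted to the set dose, was then sprayed onto the foliage, and effects were scored three weeks later using previously defined criteria.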

wild oat [1] = assay: Test Example 5: herbicidal effect by foliage application, plastic box (Table 20, symbol I); format: in vivo, wild oat (Avena fatua); conditions: foliage application, 320 g/ha
Outline: (§2)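 Foliar spray test: emulsion formulation diluted in water to a set application rate, sprayed onto 14-day-old plants raised in diluvial soil at 25° C to 30° C under glass. Both herbicidal effect and crop effect rated visually three weeks later.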

windgrass [2] = assay: Test Example 4: herbicidal effect by soil treatment (Table 19, symbol L); format: in vivo, windgrass (Apera spica-venti)
Outline: (§3)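 Herbicidal effect was rated 3 weeks after treatment, using the scoring criteria of an earlier test. The compound, formulated as an emulsion and diluted in water to a set herbicide amount, had been sprayed uniformly on soil over freshly sown seeds. Growth took place in a greenhouse at 25° C. to 30° C.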

redroot pigweed = assay: Test Example 4: herbicidal effect by soil treatment (Table 19, symbol N); format: in vivo, redroot pigweed (Amaranthus retroflexus)
Outline: as §3

Italian ryegrass [3] = assay: Test Example 5: herbicidal effect by foliage application, plastic box (Table 20, symbol K); format: in vivo, Italian ryegrass (Lolium multiflorum); conditions: foliage application, 320 g/ha
Outline: as §2

southern crabgrass [4] = assay: Test Example 4: herbicidal effect by soil treatment (Table 19, symbol F); format: in vivo, southern crabgrass (Digitaria ciliaris)
Outline: as §3

wild oat [5] = assay: Test Example 4: herbicidal effect by soil treatment (Table 19, symbol I); format: in vivo, wild oat (Avena fatua)
Outline: as §3

velvetleaf [6] = assay: Test Example 4: herbicidal effect by soil treatment (Table 19, symbol M); format: in vivo, velvetleaf (Abutilon theophrasti)
Outline: as §3

persian speedwell [7] = assay: Test Example 5: herbicidal effect by foliage application, plastic box (Table 20, symbol R); format: in vivo, Persian speedwell (Veronica persica); conditions: foliage application, 320 g/ha
Outline: as §2

false cleavers [8] = assay: Test Example 4: herbicidal effect by soil treatment (Table 19, symbol Q); format: in vivo, false cleavers (Galium spurium)
Outline: as §3

lambsquarters [9] = assay: Test Example 4: herbicidal effect by soil treatment (Table 19, symbol O); format: in vivo, lambsquarters (Chenopodium album)
Outline: as §3

blackgrass [10] = assay: Test Example 5: herbicidal effect by foliage application, plastic box (Table 20, symbol J); format: in vivo, blackgrass (Alopecurus myosuroides); conditions: foliage application, 320 g/ha
Outline: as §2

velvetleaf [11] = assay: Test Example 5: herbicidal effect by foliage application, plastic box (Table 20, symbol M); format: in vivo, velvetleaf (Abutilon theophrasti); conditions: foliage application, 320 g/ha
Outline: as §2

windgrass [12] = assay: Test Example 5: herbicidal effect by foliage application, plastic box (Table 20, symbol L); format: in vivo, windgrass (Apera spica-venti); conditions: foliage application, 320 g/ha
Outline: as §2

southern crabgrass [13] = assay: Test Example 5: herbicidal effect by foliage application, plastic box (Table 20, symbol F); format: in vivo, southern crabgrass (Digitaria ciliaris); conditions: foliage application, 320 g/ha
Outline: as §2

blackgrass [14] = assay: Test Example 4: herbicidal effect by soil treatment (Table 19, symbol J); format: in vivo, blackgrass (Alopecurus myosuroides)
Outline: as §3

Chinese sprangletop = assay: Test Example 3: herbicidal effect by foliage application, Wagner pot (Table 18, symbol D); format: in vivo, chinese sprangletop (Leptochloa chinensis); conditions: 320 g/ha
Outline: as §1

barnyard grass [15] = assay: Test Example 4: herbicidal effect by soil treatment (Table 19, symbol H); format: in vivo, barnyard grass (Echinochloa crus-galli)
Outline: as §3

persian speedwell [16] = assay: Test Example 4: herbicidal effect by soil treatment (Table 19, symbol R); format: in vivo, Persian speedwell (Veronica persica)
Outline: as §3

false cleavers [17] = assay: Test Example 5: herbicidal effect by foliage application, plastic box (Table 20, symbol Q); format: in vivo, false cleavers (Galium spurium); conditions: foliage application, 320 g/ha
Outline: as §2

chickweed = assay: Test Example 4: herbicidal effect by soil treatment (Table 19, symbol P); format: in vivo, common chickweed (Stellaria media)
Outline: as §3

lambsquarters [18] = assay: Test Example 5: herbicidal effect by foliage application, plastic box (Table 20, symbol O); format: in vivo, lambsquarters (Chenopodium album); conditions: foliage application, 320 g/ha
Outline: as §2

barnyard grass [19] = assay: Test Example 3: herbicidal effect by foliage application, Wagner pot (Table 18, symbol H); format: in vivo, barnyard grass (Echinochloa crus-galli); conditions: 320 g/ha
Outline: as §1

Italian ryegrass [20] = assay: Test Example 4: herbicidal effect by soil treatment (Table 19, symbol K); format: in vivo, Italian ryegrass (Lolium multiflorum)
Outline: as §3

green foxtail [21] = assay: Test Example 5: herbicidal effect by foliage application, plastic box (Table 20, symbol G); format: in vivo, green foxtail (Setaria viridis); conditions: foliage application, 320 g/ha
Outline: as §2

barnyard grass [22] = assay: Test Example 5: herbicidal effect by foliage application, plastic box (Table 20, symbol H); format: in vivo, barnyard grass (Echinochloa crus-galli); conditions: foliage application, 320 g/ha
Outline: as §2

green foxtail [23] = assay: Test Example 4: herbicidal effect by soil treatment (Table 19, symbol G); format: in vivo, green foxtail (Setaria viridis); conditions: amount of applied herbicide 320 g/ha
Outline: as §3

[24] = amount of applied herbicide 320 g/ha

CCCC(=O)Oc1c(OC)nn(C)c(=O)c1-c1c(-c2ccc3c(c2)OCCO3)sc2ccccc12 [1-199]
herbicidal effect on E (rice flat sedge), rating 0-5 (rice flat sedge): 5 (Herbicidal rate of 90% or more (almost completely withered))
effect on wild oat (I) (wild oat [1]; 3 weeks after application): 0 (Herbicidal rate of 5% or less (almost no effect))
L: windgrass, herbicidal effect rating (windgrass [2]; AAH 320 g/ha): 0 (Herbicidal rate of 5% or less (almost no effect))
N: redroot pigweed, herbicidal effect rating (redroot pigweed; AAH 320 g/ha): 0 (Herbicidal rate of 5% or less (almost no effect))
effect on Italian ryegrass (K) (Italian ryegrass [3]; 3 weeks after application): 0 (Herbicidal rate of 5% or less (almost no effect))
F: southern crabgrass, herbicidal effect rating (southern crabgrass [4]; AAH 320 g/ha): 1 (Herbicidal rate of 5% or more and less than 20%)
I: wild oat, herbicidal effect rating (wild oat [5]; AAH 320 g/ha): 0 (Herbicidal rate of 5% or less (almost no effect))
M: velvetleaf, herbicidal effect rating (velvetleaf [6]; AAH 320 g/ha): 0 (Herbicidal rate of 5% or less (almost no effect))
effect on persian speedwell (R) (persian speedwell [7]; 3 weeks after application): 4 (Herbicidal rate of 70% or more and less than 90%)
Q: false cleavers, herbicidal effect rating (false cleavers [8]; AAH 320 g/ha): 0 (Herbicidal rate of 5% or less (almost no effect))
O: lambsquarters, herbicidal effect rating (lambsquarters [9]; AAH 320 g/ha): 3 (Herbicidal rate of 40% or more and less than 70%)
effect on blackgrass (J) (blackgrass [10]; 3 weeks after application): 0 (Herbicidal rate of 5% or less (almost no effect))
effect on velvetleaf (M) (velvetleaf [11]; 3 weeks after application): 0 (Herbicidal rate of 5% or less (almost no effect))
effect on windgrass (L) (windgrass [12]; 3 weeks after application): 0 (Herbicidal rate of 5% or less (almost no effect))
effect on southern crabgrass (F) (southern crabgrass [13]; 3 weeks after application): 0 (Herbicidal rate of 5% or less (almost no effect))
J: blackgrass, herbicidal effect rating (blackgrass [14]; AAH 320 g/ha): 0 (Herbicidal rate of 5% or less (almost no effect))
herbicidal effect on D (Chinese sprangletop), rating 0-5 (Chinese sprangletop): 0 (Herbicidal rate of 5% or less (almost no effect))
H: barnyard grass, herbicidal effect rating (barnyard grass [15]; AAH 320 g/ha): 2 (Herbicidal rate of 20% or more and less than 40%)
R: persian speedwell, herbicidal effect rating (persian speedwell [16]; AAH 320 g/ha): 5 (Herbicidal rate of 90% or more (almost completely withered))
effect on false cleavers (Q) (false cleavers [17]; 3 weeks after application): 0 (Herbicidal rate of 5% or less (almost no effect))
P: chickweed, herbicidal effect rating (chickweed; AAH 320 g/ha): 4 (Herbicidal rate of 70% or more and less than 90%)
effect on lambsquarters (O) (lambsquarters [18]; 3 weeks after application): 0 (Herbicidal rate of 5% or less (almost no effect))
herbicidal effect on H (barnyard grass), rating 0-5 (barnyard grass [19]): 0 (Herbicidal rate of 5% or less (almost no effect))
K: Italian ryegrass, herbicidal effect rating (Italian ryegrass [20]; AAH 320 g/ha): 0 (Herbicidal rate of 5% or less (almost no effect))
effect on green foxtail (G) (green foxtail [21]; 3 weeks after application): 0 (Herbicidal rate of 5% or less (almost no effect))
effect on barnyard grass (H) (barnyard grass [22]; 3 weeks after application): 0 (Herbicidal rate of 5% or less (almost no effect))

COc1cc2sc(-c3ccccc3OC)c(-c3c(O)c(C)nn(C)c3=O)c2cc1OC [5-059]
herbicidal effect on rice flat sedge (E) (rice flat sedge): 4 (Herbicidal rate of 70% or more and less than 90%)
herbicidal effect on wild oat (I) (wild oat [1]; three weeks after application): 4 (Herbicidal rate of 70% or more and less than 90%)
L: windgrass, herbicidal effect grade (windgrass [2]; [24]): 3 (Herbicidal rate of 40% or more and less than 70%)
N: redroot pigweed, herbicidal effect grade (redroot pigweed; [24]): 0 (Herbicidal rate of 5% or less (almost no effect))
herbicidal effect on Italian ryegrass (K) (Italian ryegrass [3]; three weeks after application): 4 (Herbicidal rate of 70% or more and less than 90%)
F: southern crabgrass, herbicidal effect grade (southern crabgrass [4]; [24]): 0 (Herbicidal rate of 5% or less (almost no effect))
I: wild oat, herbicidal effect grade (wild oat [5]; [24]): 0 (Herbicidal rate of 5% or less (almost no effect))
M: velvetleaf, herbicidal effect grade (velvetleaf [6]; [24]): 0 (Herbicidal rate of 5% or less (almost no effect))
herbicidal effect on persian speedwell (R) (persian speedwell [7]; three weeks after application): 4 (Herbicidal rate of 70% or more and less than 90%)
Q: false cleavers, herbicidal effect grade (false cleavers [8]; [24]): 0 (Herbicidal rate of 5% or less (almost no effect))
O: lambsquarters, herbicidal effect grade (lambsquarters [9]; [24]): 0 (Herbicidal rate of 5% or less (almost no effect))
G: green foxtail, herbicidal effect grade (green foxtail [23]): 0 (Herbicidal rate of 5% or less (almost no effect))
herbicidal effect on blackgrass (J) (blackgrass [10]; three weeks after application): 5 (Herbicidal rate of 90% or more (almost completely withered))
herbicidal effect on velvetleaf (M) (velvetleaf [11]; three weeks after application): 3 (Herbicidal rate of 40% or more and less than 70%)
herbicidal effect on windgrass (L) (windgrass [12]; three weeks after application): 4 (Herbicidal rate of 70% or more and less than 90%)
herbicidal effect on southern crabgrass (F) (southern crabgrass [13]; three weeks after application): 4 (Herbicidal rate of 70% or more and less than 90%)
J: blackgrass, herbicidal effect grade (blackgrass [14]; [24]): 3 (Herbicidal rate of 40% or more and less than 70%)
herbicidal effect on Chinese sprangletop (D) (Chinese sprangletop): 3 (Herbicidal rate of 40% or more and less than 70%)
H: barnyard grass, herbicidal effect grade (barnyard grass [15]; [24]): 0 (Herbicidal rate of 5% or less (almost no effect))
R: persian speedwell, herbicidal effect grade (persian speedwell [16]; [24]): 0 (Herbicidal rate of 5% or less (almost no effect))
herbicidal effect on false cleavers (Q) (false cleavers [17]; three weeks after application): 0 (Herbicidal rate of 5% or less (almost no effect))
P: chickweed, herbicidal effect grade (chickweed; [24]): 0 (Herbicidal rate of 5% or less (almost no effect))
herbicidal effect on lambsquarters (O) (lambsquarters [18]; three weeks after application): 4 (Herbicidal rate of 70% or more and less than 90%)
herbicidal effect on barnyard grass (H) (barnyard grass [19]): 5 (Herbicidal rate of 90% or more (almost completely withered))
K: Italian ryegrass, herbicidal effect grade (Italian ryegrass [20]; [24]): 4 (Herbicidal rate of 70% or more and less than 90%)
herbicidal effect on green foxtail (G) (green foxtail [21]; three weeks after application): 4 (Herbicidal rate of 70% or more and less than 90%)
herbicidal effect on barnyard grass (H) (barnyard grass [22]; three weeks after application): 3 (Herbicidal rate of 40% or more and less than 70%)
